Reference: patent US20250230193A1, “CYCLIC COMPOUND HAVING SELECTIVE KRAS INHIBITORY EFFECT ON HRAS AND NRAS” (CHUGAI SEIYAKU KABUSHIKI KAISHA, priority 2022, published 2025)

Experiments:
[1] = biological target: GDP-bound NRAS wild-type protein (Homo sapiens, UniProt P01111); assay: Binding to NRAS by surface plasmon resonance (SPR), Single Cycle Kinetics; details: KD ratio NRAS/KRAS, SPR
[2] = biological target: GDP-bound HRAS wild-type protein (Homo sapiens, UniProt P01112); assay: Binding to HRAS by surface plasmon resonance (SPR), Single Cycle Kinetics; details: KD ratio HRAS/KRAS, SPR
Chain of GDP-bound HRAS wild-type protein (P01112 whole entry): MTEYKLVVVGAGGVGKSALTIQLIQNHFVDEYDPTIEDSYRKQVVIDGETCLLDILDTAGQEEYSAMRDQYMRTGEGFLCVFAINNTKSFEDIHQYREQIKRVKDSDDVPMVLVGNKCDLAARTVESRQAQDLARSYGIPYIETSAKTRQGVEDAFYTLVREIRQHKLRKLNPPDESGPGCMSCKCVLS

Chain of GDP-bound NRAS wild-type protein (P01111 whole entry): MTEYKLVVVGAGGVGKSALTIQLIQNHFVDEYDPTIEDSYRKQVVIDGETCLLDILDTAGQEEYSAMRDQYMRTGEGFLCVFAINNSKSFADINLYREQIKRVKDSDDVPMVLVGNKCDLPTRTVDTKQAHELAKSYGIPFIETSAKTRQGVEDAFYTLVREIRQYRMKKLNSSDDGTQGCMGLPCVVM

| Compound | NRAS/KRAS (ratio of KD value with respect to GDP-bound NRAS wild-type protein to KD value with respect to KRAS) [1] | HRAS/KRAS (ratio of KD value with respect to GDP-bound HRAS wild-type protein to KD value with respect to KRAS) [2] |
| --- | --- | --- |
| CC[C@H](C)[C@@H]1NC(=O)[C@H](CC(C)C)N(C)C(=O)C[C@@H](C(=O)N2CCOCC2)N(C)C(=O)[C@H](C2CCCC2)N(C)C(=O)C2(CCCC2)NC(=O)[C@@H]2CCCN2C(=O)[C@H](CCc2cc(F)c(C(F)(F)F)c(F)c2)NC(=O)CN(C)C(=O)[C@H](Cc2ccc(C(F)(F)F)cc2)N2CCCCC[C@@H](C2=O)N(C)C(=O)[C@H](C)NC1=O [PP0481] | B (a compound having 3 or more and less than 10 is denoted as B) | B (a compound having 3 or more and less than 10 is denoted as B) |
| CC[C@H](C)[C@@H]1NC(=O)[C@H](CC(C)C)N(C)C(=O)C[C@@H](C(=O)N2CCOCC2)N(C)C(=O)[C@H](C2CCCC2)N(C)C(=O)C2(CCCC2)NC(=O)[C@@H]2CCCN2C(=O)[C@H](CCc2cc(F)c(C(F)(F)F)c(F)c2)NC(=O)CN(C)C(=O)[C@H](Cc2ccc(C(F)(F)F)cc2)N2CCCCC[C@@H](C2=O)N(C)C(=O)CN(CC)C1=O [PP0483] | B (a compound having 3 or more and less than 10 is denoted as B) | B (a compound having 3 or more and less than 10 is denoted as B) |
| CC[C@H](C)[C@@H]1NC(=O)[C@H](CC(C)C)N(C)C(=O)C[C@@H](C(=O)N2CCOCC2)N(C)C(=O)[C@H](C2CCCC2)N(C)C(=O)C2(CCCC2)NC(=O)[C@@H]2CCCN2C(=O)[C@H](CCc2cc(F)c(C(F)(F)F)c(F)c2)NC(=O)CN(C)C(=O)[C@H](Cc2ccc(C(F)(F)F)cc2)N2CCCCC[C@@H](C2=O)N(C)C(=O)[C@@H]2CCN2C1=O [PP0484] | A (a compound having 10 or more and less than 20 is denoted as A) | B (a compound having 3 or more and less than 10 is denoted as B) |
| CC[C@H](C)[C@@H]1NC(=O)[C@H](CC(C)C)N(C)C(=O)C[C@@H](C(=O)N2CCOCC2)N(C)C(=O)[C@H](C2CCCC2)N(C)C(=O)C2(CCCC2)NC(=O)[C@@H]2CCCN2C(=O)[C@H](CCc2cc(F)c(C(F)(F)F)c(F)c2)NC(=O)CN(C)C(=O)[C@H](Cc2ccc(C(F)(F)F)cc2)N2CCCCC[C@@H](C2=O)N(C)C(=O)[C@@H]2CCCN2C1=O [PP0485] | A (a compound having 10 or more and less than 20 is denoted as A) | B (a compound having 3 or more and less than 10 is denoted as B) |
| CC[C@H](C)[C@@H]1NC(=O)[C@H](C)N(C)C(=O)C[C@@H](C(=O)N2CCOCC2)N(C)C(=O)[C@H](C2CCCC2)N(C)C(=O)C2(CCCC2)NC(=O)[C@@H]2CCCN2C(=O)[C@H](CCc2cc(F)c(C(F)(F)F)c(F)c2)NC(=O)CN(C)C(=O)[C@H](Cc2ccc(C(F)(F)F)cc2)N2CCCCC[C@@H](C2=O)N(C)C(=O)CN(C)C1=O [PP0487] | B (a compound having 3 or more and less than 10 is denoted as B) | B (a compound having 3 or more and less than 10 is denoted as B) |
| CC[C@H](C)[C@@H]1NC(=O)[C@H](CC)N(C)C(=O)C[C@@H](C(=O)N2CCOCC2)N(C)C(=O)[C@H](C2CCCC2)N(C)C(=O)C2(CCCC2)NC(=O)[C@@H]2CCCN2C(=O)[C@H](CCc2cc(F)c(C(F)(F)F)c(F)c2)NC(=O)CN(C)C(=O)[C@H](Cc2ccc(C(F)(F)F)cc2)N2CCCCC[C@@H](C2=O)N(C)C(=O)CN(C)C1=O [PP0488] | A (a compound having 10 or more and less than 20 is denoted as A) | B (a compound having 3 or more and less than 10 is denoted as B) |
| CC[C@H](C)[C@@H]1NC(=O)[C@H](CC(C)C)N(C)C(=O)C[C@@H](C(=O)N2CCOCC2)N(C)C(=O)[C@H](C2CCCC2)N(C)C(=O)C2(CCCC2)NC(=O)[C@@H]2CCCN2C(=O)[C@H](CCc2cc(F)c(C(F)(F)F)c(F)c2)NC(=O)CN(C)C(=O)[C@H](Cc2ccc(C(F)(F)F)cc2)N2CCCCC[C@@H](C2=O)N(C)C(=O)CN(C)C1=O [PP0490] | B (a compound having 3 or more and less than 10 is denoted as B) | B (a compound having 3 or more and less than 10 is denoted as B) |
| CC[C@H](C)[C@@H]1NC(=O)[C@H](CC(C)C)N(C)C(=O)C[C@@H](C(=O)N2CCOCC2)N(C)C(=O)[C@H](C2CCCC2)N(C)C(=O)C2(CCCC2)NC(=O)[C@@H]2CC(F)(F)CN2C(=O)[C@H](CCc2cc(F)c(C(F)(F)F)c(F)c2)NC(=O)CN(C)C(=O)[C@H](Cc2ccc(C(F)(F)F)cc2)N2CCCCC[C@@H](C2=O)N(C)C(=O)CN(C)C1=O [PP0491] | B (a compound having 3 or more and less than 10 is denoted as B) | B (a compound having 3 or more and less than 10 is denoted as B) |
| CCO[C@@H]1C[C@H]2C(=O)NC3(CCCC3)C(=O)N(C)[C@@H](C3CCCC3)C(=O)N(C)[C@H](C(=O)N3CCOCC3)CC(=O)N(C)[C@@H](CC(C)C)C(=O)N[C@@H]([C@@H](C)CC)C(=O)N(C)CC(=O)N(C)[C@H]3CCCCCN(C3=O)[C@@H](Cc3ccc(C(F)(F)F)cc3)C(=O)N(C)CC(=O)N[C@@H](CCc3cc(F)c(C(F)(F)F)c(F)c3)C(=O)N2C1 [PP0492] | B (a compound having 3 or more and less than 10 is denoted as B) | B (a compound having 3 or more and less than 10 is denoted as B) |
| CC[C@H](C)[C@@H]1NC(=O)[C@H](CC(C)C)N(C)C(=O)C[C@@H](C(=O)N2CCOCC2)N(C)C(=O)[C@H](C2CCCC2)N(C)C(=O)C2(CCCC2)NC(=O)[C@@H]2CC(=O)CN2C(=O)[C@H](CCc2cc(F)c(C(F)(F)F)c(F)c2)NC(=O)CN(C)C(=O)[C@H](Cc2ccc(C(F)(F)F)cc2)N2CCCCC[C@@H](C2=O)N(C)C(=O)CN(C)C1=O [PP0493] | B (a compound having 3 or more and less than 10 is denoted as B) | B (a compound having 3 or more and less than 10 is denoted as B) |
| CC[C@H](C)[C@@H]1NC(=O)[C@H](CC(C)C)N(C)C(=O)C[C@@H](C(=O)N2CCOCC2)N(C)C(=O)[C@H](C2CCCC2)N(C)C(=O)C2(CCCC2)NC(=O)[C@@H]2C[C@H](OC)CN2C(=O)[C@H](CCc2cc(F)c(C(F)(F)F)c(F)c2)NC(=O)CN(C)C(=O)[C@H](Cc2ccc(C(F)(F)F)cc2)N2CCCCC[C@@H](C2=O)N(C)C(=O)CN(C)C1=O [PP0495] | A (a compound having 10 or more and less than 20 is denoted as A) | B (a compound having 3 or more and less than 10 is denoted as B) |
| CC[C@H](C)[C@@H]1NC(=O)[C@H](CC(C)C)N(C)C(=O)C[C@@H](C(=O)N2CCOCC2)N(C)C(=O)[C@H](C2CCCC2)N(C)C(=O)C2(CC2)NC(=O)[C@@H]2CCCN2C(=O)[C@H](CCc2cc(F)c(C(F)(F)F)c(F)c2)NC(=O)CN(C)C(=O)[C@H](Cc2ccc(C(F)(F)F)cc2)N2CCCCC[C@@H](C2=O)N(C)C(=O)CN(C)C1=O [PP0496] | B (a compound having 3 or more and less than 10 is denoted as B) | B (a compound having 3 or more and less than 10 is denoted as B) |
| CC[C@H](C)[C@@H]1NC(=O)[C@H](CC(C)C)N(C)C(=O)C[C@@H](C(=O)N2CCOCC2)N(C)C(=O)[C@H](C2CCCC2)N(C)C(=O)C2(CCC2)NC(=O)[C@@H]2CCCN2C(=O)[C@H](CCc2cc(F)c(C(F)(F)F)c(F)c2)NC(=O)CN(C)C(=O)[C@H](Cc2ccc(C(F)(F)F)cc2)N2CCCCC[C@@H](C2=O)N(C)C(=O)CN(C)C1=O [PP0497] | B (a compound having 3 or more and less than 10 is denoted as B) | B (a compound having 3 or more and less than 10 is denoted as B) |
| CC[C@H](C)[C@@H]1NC(=O)[C@H](CC(C)C)N(C)C(=O)C[C@@H](C(=O)N2CCOCC2)N(C)C(=O)[C@H](C2CCCC2)N(C)C(=O)C2(CCCCC2)NC(=O)[C@@H]2CCCN2C(=O)[C@H](CCc2cc(F)c(C(F)(F)F)c(F)c2)NC(=O)CN(C)C(=O)[C@H](Cc2ccc(C(F)(F)F)cc2)N2CCCCC[C@@H](C2=O)N(C)C(=O)CN(C)C1=O [PP0498] | B (a compound having 3 or more and less than 10 is denoted as B) | B (a compound having 3 or more and less than 10 is denoted as B) |
| CC[C@H](C)[C@@H]1NC(=O)[C@H](CC(C)C)N(C)C(=O)C[C@@H](C(=O)N2CCOCC2)N(C)C(=O)[C@H](C2CCCC2)N(C)C(=O)C2(CC(F)(F)C2)NC(=O)[C@@H]2CCCN2C(=O)[C@H](CCc2cc(F)c(C(F)(F)F)c(F)c2)NC(=O)CN(C)C(=O)[C@H](Cc2ccc(C(F)(F)F)cc2)N2CCCCC[C@@H](C2=O)N(C)C(=O)CN(C)C1=O [PP0499] | B (a compound having 3 or more and less than 10 is denoted as B) | B (a compound having 3 or more and less than 10 is denoted as B) |
| CC[C@H](C)[C@@H]1NC(=O)[C@H](CC(C)C)N(C)C(=O)C[C@@H](C(=O)N2CCOCC2)N(C)C(=O)[C@H](C2CCCC2)N(C)C(=O)[C@](C)(CC)NC(=O)[C@@H]2CCCN2C(=O)[C@H](CCc2cc(F)c(C(F)(F)F)c(F)c2)NC(=O)CN(C)C(=O)[C@H](Cc2ccc(C(F)(F)F)cc2)N2CCCCC[C@@H](C2=O)N(C)C(=O)CN(C)C1=O [PP0500] | B (a compound having 3 or more and less than 10 is denoted as B) | B (a compound having 3 or more and less than 10 is denoted as B) |
